Assay results taken from patent USRE49687E1, “Thienopyrimidine and thienopyridine compounds and methods of use thereof” (The Regents of The University of Michigan, priority 2014, dated 2023).
pIC50: −log10 of the molar value.

How the values were obtained:
menin-MLL interaction = target: T1, menin-MLL interaction (Homo sapiens, UniProt O00255); assay: Fluorescence polarization (FP) competition assay of the menin-MLL interaction; format: binding; conditions: inhibition of the menin-MLL interaction; read-out: IC50 values for Table 1 inhibitors of menin
T1 sequence (O00255 1-610): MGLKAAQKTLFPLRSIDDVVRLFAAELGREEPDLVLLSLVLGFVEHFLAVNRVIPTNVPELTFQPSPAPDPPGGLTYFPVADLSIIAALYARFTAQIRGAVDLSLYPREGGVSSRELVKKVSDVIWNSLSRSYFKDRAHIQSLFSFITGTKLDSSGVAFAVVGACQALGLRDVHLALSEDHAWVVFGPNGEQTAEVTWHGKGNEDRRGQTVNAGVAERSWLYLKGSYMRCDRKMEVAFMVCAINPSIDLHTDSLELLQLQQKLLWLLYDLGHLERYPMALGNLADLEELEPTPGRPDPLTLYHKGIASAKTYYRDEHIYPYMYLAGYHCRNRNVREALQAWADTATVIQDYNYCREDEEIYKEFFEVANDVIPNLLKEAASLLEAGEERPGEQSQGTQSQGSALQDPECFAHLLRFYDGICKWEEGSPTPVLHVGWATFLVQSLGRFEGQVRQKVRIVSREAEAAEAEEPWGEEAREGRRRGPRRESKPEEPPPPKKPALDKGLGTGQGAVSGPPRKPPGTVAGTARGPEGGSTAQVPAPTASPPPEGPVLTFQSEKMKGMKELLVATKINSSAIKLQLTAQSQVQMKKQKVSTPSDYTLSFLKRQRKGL

menin = target: T2, menin (Homo sapiens, UniProt O00255); assay: Crystal structure of menin in complex with compound; conditions: FIG. 1
T2 sequence (O00255 1-610): T1 sequence (O00255 1-610)

[1] = tested on: MV4; 11 cells (harboring MLL-AF4 fusion protein); assay: In vivo xenograft study with MV4;11 cells injected subcutaneously; set-up: species or system CB17 SCID mice; conditions: once daily, i.p., 25 mg/kg; treatment initiated when tumors reached ~100 mm^3
Excerpt: FIG. 3 depicts in vivo xenograft studies with MV4; 11 cells (harboring MLL-AF4 fusion protein) injected subcutaneously into CB17 SCID mice.
Efficacy Study in Mouse Xenograft Tumor Model.
Immunodeficient mice, such as 8-10 week-old female nude (nu/nu) mice, are used for in vivo efficacy studies in accordance with the guidelines approved by IACUC. Leukemia cells, such as human MV4-11 leukemia cells available from ATCC, are implanted subcutaneously via needle into female nude mice (5×10^6 cells/mouse). When the tumor reaches a size of approximately 100 mm^3 in mice, the tumor-bearing mice are randomly assigned to a vehicle control or compound treatment group (8 animals per group). Animals are treated with a compound of the present invention by oral gavage or intraperitoneal injection in an appropriate amount and frequency as can be determined by the skilled artisan without undue experimentation. Subcutaneous tumor volume in nude mice and mice body weight are measured twice weekly. Tumor volumes are calculated by measuring two perpendicular diameters with calipers (V=(length×width^2)/2). Percentage tumor growth inhibition (% TGI=1−[change of tumor volume in treatment group/change of tumor volume in control group]*100) is used to evaluate anti-tumor efficacy. Statistical significance is evaluated using a one-tailed, two sample t test. P<0.05 is considered statistically significant.

Row | Structure (SMILES) | pIC50 (menin-MLL interaction) | covalent binding of the compound to a Cys residue on menin (menin) | tumor volume [1]
1 | C=CC(=O)Nc1ccc(CCn2c(C#N)cc3c(C)c(CN4CCC(Nc5ncnc6sc(CC(F)(F)F)cc56)CC4)ccc32)cc1 [Compound 81, N-(4-(2-(2-cyano-4-methyl-5-((4-(6-(2,2,2-trifluoroethyl)thieno[2,3-d]pyrimidin-4-ylamino)piperidin-1-yl)methyl)-1H-indol-1-yl)ethyl)phenyl)acrylamide] | > 7.52 | – | –
2 | C=CC(=O)N1CCC2(CC1)CN(CCn1c(C#N)cc3c(C)c(CN4CCC(Nc5ncnc6sc(CC(F)(F)F)cc56)CC4)ccc31)C2 [Compound 178] | 7.00 to 7.52 | – | –
3 | C=CS(=O)(=O)N1CCN(CCn2c(C#N)cc3c(C)c(CN4CCC(Nc5ncnc6sc(CC(F)(F)F)cc56)CC4)ccc32)CC1 [Compound 3, 4-methyl-1-(2-(4-vinylsulfonylpiperazin-1-yl)ethyl)-5-((4-((6-(2,2,2-trifluoroethyl)thieno[2,3-d]pyrimidin-4-yl)amino)piperidin-1-yl)methyl)-1H-indole-2-carbonitrile] | > 7.52 | covalent binding of the compound to a Cys residue on menin | strong reduction of tumor volume
